In patent publication US20030103901A1, “ELISA kit for the determination of CYP2C19 metabolic phenotypes and uses thereof” (McGill University, priority 2001, published 2003):
Marks after values point to notes of the source that are not given here.

Columns and labels:
AAMU-Ab = experiment: Competitive antigen ELISA, cross-reactivity of AAMU-Ab; type: binding, rabbit; conditions: for % Cross-Reaction AAMU-Ab: competitive antigen ELISA, 0 = absence of inhibition or inhibition no higher than 40% at highest concentration tested (5×10^−3 M)
Procedure: (§1) Buffers and water without additives are filtered through millipore filters and kept for 1 week. BSA, antibodies, Tween™ 20 and horse radish peroxidase conjugates are added to these buffers and water just prior to use. Urine samples are usually collected 4 hours after drinking a cup of coffee (instant or brewed with approximately 100 mg of caffeine per cup) and stored at −80° C. The urine samples are diluted 10 times with sodium phosphate buffer (620 mosm, pH 7.50) and are subsequently diluted with water to give concentrations of AAMU and 1X no higher than 3×10^−6 M in the ELISA. All the pipettings are done with an eight-channel pipette, except those of the antibody and sample solutions. Starting with the last well, 100 μL of a carbonate buffer (100 mM, pH 9.6) containing 2.5 μg mL-^1 antibodies are added to each well. After 90 min. at room temperature, the wells are washed three times with […] of TPB: isotonic sodium phosphate buffer (310 mosm, pH 7.50) containing 0.05% Tween™ 20.
(§2) After the initial wash, unoccupied sites are blocked by incubation for 90 min. at room temperature with 100 μL TBP containing 3% BSA. The wells are washed four times with 100 μL TPB. The washing is followed by additions of 50 μL of 12 mg mL^−1 AAMU-HRP or 1X-HRP conjugate in 2×TPB containing 2% BSA, and 50 μL of either water, standard (13 standards; AAMU or 1X, 2×10^−4 to 2×10^−8 M) or sample in duplicate. The microplate is gently shaken with an orbital shaker at room temperature for 3-4 hours. The wells are washed three times with 100 μL TPB containing 1% BSA and three times with water containing 0.05% Tween™ 20. To the washed plate is added 150 μL of a substrate buffer composed of citric acid (25 mM) and sodium phosphate dibasic buffer (50 mM, pH 5.0) containing 0.06% hydrogen peroxide and 0.04% o-phenylenediamine hydrochloride.
(§3) Buffers and water without additives were filtered through millipore filters and kept for 1 week. BSA, antibodies, Tween™ 20 and horse radish peroxidase conjugates were added to these buffers and water just prior to use. Urine samples were usually collected 4 hours after drinking a cup of coffee (instant or brewed with approximately 100 mg of caffeine per cup) and stored at −80° C. They were diluted 10 times with sodium phosphate buffer (620 mosm, pH 7.50) and were subsequently diluted with water to give concentrations of AAMU and 1X no higher than 3×10^−6 M in the ELISA. All the pipettings were done with an eight-channel pipette, except those of the antibody and sample solutions. Starting with the last well, 100 μL of a carbonate buffer (100 mM, pH 9.6) containing 2.5 μg mL-^1 antibodies was pipetted. After 90 min. at room temperature, the wells were washed three times with 100 μL of TPB: isotonic sodium phosphate buffer (310 mosm, pH 7.50) containing 0.05% Tween™ 20.
(§4) After the initial wash, unoccupied sites were blocked by incubation for 90 min. at room temperature with 100 μL TBP containing 3% BSA. The wells were washed four times with 100 μL TPB. This was followed by additions of 50 μL of 12 mg mL^−1 AAMU-HRP or 1X-HRP conjugate in 2×TPB containing 2% BSA, and 50 μL of either water, standard (13 standards; AAMU or 1X, 2×10^−4 to 2×10^−8 M) or sample in duplicate. The microplate was gently shaken with an orbital shaker at room temperature for 3-4 hours. The wells were washed three times with 100 μL with TPB containing 1% BSA and three times with water containing 0.05% Tween™ 20. To the washed plate was added 150 μL of a substrate buffer composed of citric acid (25 mM) and sodium phosphate dibasic buffer (50 mM, pH 5.0) containing 0.06% hydrogen peroxide and 0.04% o-phenylenediamine hydrochloride. After 20 min. at room temperature with shaking, the reaction was stopped with 50 μL of 2.5 N HCl.
(§5) The cross reactivities of AAMU-Ab and 1X-Ab were tested using a wide variety of caffeine metabolites and structural analogs (Table 2 below).

1X-Ab = experiment: Competitive antigen ELISA, cross-reactivity of 1X-Ab; type: binding, rabbit; conditions: for % Cross-Reaction 1X-Ab: competitive antigen ELISA, 0 = absence of inhibition or inhibition no higher than 40% at highest concentration tested (5×10^−3 M)
Procedure: as §1, §2, §3, §4, §5

## Cn1c(=O)c2c(ncn2C)n(C)c1=O [1,3,7-Trimethyl Xanthine (Caffeine), 1,3,7-Trimethyl Xanthine]
AAMU-Ab
  % Cross-Reaction AAMU-Ab: 0%
1X-Ab
  % Cross-Reaction 1X-Ab: 0%

## Cn1c(=O)c2[nH]cnc2n(C)c1=O [1,3-Dimethyl Xanthine (Theophylline), 1,3-Dimethyl Xanthine]
AAMU-Ab
  % Cross-Reaction AAMU-Ab: 0%
1X-Ab
  % Cross-Reaction 1X-Ab: 0.2%

## Cn1c(=O)[nH]c2ncn(C)c2c1=O [1,7-Dimethyl Xanthine (Paraxanthine), 1,7-Dimethyl Xanthine]
AAMU-Ab
  % Cross-Reaction AAMU-Ab: 0%
1X-Ab
  % Cross-Reaction 1X-Ab: 0.5%

## Cn1c(=O)[nH]c2[nH]c(=O)n(C)c2c1=O [1,7-Dimethyluric acid]
AAMU-Ab
  % Cross-Reaction AAMU-Ab: 0%
1X-Ab
  % Cross-Reaction 1X-Ab: 0%

## Cn1c(=O)[nH]c2nc[nH]c2c1=O [1-Methyl Xanthine (1X), 1-Methyl Xanthine]
AAMU-Ab
  % Cross-Reaction AAMU-Ab: 0%
1X-Ab; 1X-Ab, 1X-HRP conjugate, read-out: concentration required for 50% inhibition in the competitive antigen ELISA
  IC50: 10 µM
1X-Ab
  % Cross-Reaction 1X-Ab: 100%

## Cn1c(=O)[nH]c2[nH]c(=O)[nH]c2c1=O [1-Methyluric acid]
AAMU-Ab
  % Cross-Reaction AAMU-Ab: 0%
1X-Ab
  % Cross-Reaction 1X-Ab: 11%

## Cn1cnc2c1c(=O)[nH]c(=O)n2C [3,7-Dimethyl Xanthine (Theobromine), 3,7-Dimethyl Xanthine]
AAMU-Ab
  % Cross-Reaction AAMU-Ab: 0%
1X-Ab
  % Cross-Reaction 1X-Ab: 0%

## Cn1c(=O)[nH]c(=O)c2[nH]cnc21 [3-Methyl Xanthine]
AAMU-Ab
  % Cross-Reaction AAMU-Ab: 0%
1X-Ab
  % Cross-Reaction 1X-Ab: 0%

## CC(=O)Nc1c(N)n(C)c(=O)n(C)c1=O [5-Acetamino-6-amino-1,3-dimethyluracil]
AAMU-Ab
  % Cross-Reaction AAMU-Ab: 0%
1X-Ab
  % Cross-Reaction 1X-Ab: 0%

## CC(=O)Nc1c(N)n(C)c(=O)[nH]c1=O [5-Acetamino-6-amino-1-methyluracil]
AAMU-Ab; AAMU-Ab, AAMU-HRP conjugate, read-out: concentration required for 50% inhibition in the competitive antigen ELISA
  IC50: 1.5 µM
AAMU-Ab
  % Cross-Reaction AAMU-Ab: 100%
1X-Ab
  % Cross-Reaction 1X-Ab: 0%

## CC(=O)Nc1c(N)[nH]c(=O)[nH]c1=O [5-Acetamino-6-amino-uracil]
AAMU-Ab
  % Cross-Reaction AAMU-Ab: 0.6%
1X-Ab
  % Cross-Reaction 1X-Ab: 0%

## Cn1cnc2[nH]c(=O)[nH]c(=O)c21 [7-Methyl Xanthine]
AAMU-Ab
  % Cross-Reaction AAMU-Ab: 0%
1X-Ab
  % Cross-Reaction 1X-Ab: 0%

## Cc1nc2[nH]c(=O)[nH]c(=O)c2[nH]1 [8-Methyl Xanthine]
AAMU-Ab
  % Cross-Reaction AAMU-Ab: 0%
1X-Ab
  % Cross-Reaction 1X-Ab: 0%

## Nc1nc2nc[nH]c2c(=O)[nH]1 [Guanine]
AAMU-Ab
  % Cross-Reaction AAMU-Ab: 0%
1X-Ab
  % Cross-Reaction 1X-Ab: 0%

## O=c1[nH]cnc2nc[nH]c12 [Hypoxanthine]
AAMU-Ab
  % Cross-Reaction AAMU-Ab: 0%
1X-Ab
  % Cross-Reaction 1X-Ab: 0%

## O=c1cc[nH]c(=O)[nH]1 [Uracil]
AAMU-Ab
  % Cross-Reaction AAMU-Ab: 0%
1X-Ab
  % Cross-Reaction 1X-Ab: 0%

## O=c1[nH]c(=O)c2[nH]c(=O)[nH]c2[nH]1 [Uric acid]
AAMU-Ab
  % Cross-Reaction AAMU-Ab: 0%
1X-Ab
  % Cross-Reaction 1X-Ab: 0%

## O=c1[nH]c(=O)c2[nH]cnc2[nH]1 [Xanthine]
AAMU-Ab
  % Cross-Reaction AAMU-Ab: 0^a %
1X-Ab
  % Cross-Reaction 1X-Ab: 0%
